This test has as its target hPK-M2 (Homo sapiens, UniProt P14618). The test can be described thus: Luminescent pyruvate kinase-luciferase coupled assay (KinaseGlo). The test is classed as biochemical. The note with it: for activation at 57 µM: read-out: hPK, M2 Max. Res. The protocol: Luminescent Pyruvate Kinase-Luciferase Coupled Assay.
Production of a luminescent signal based on the generation of ATP by pyruvate kinase was determined by using the ATP-dependent enzyme firefly luciferase. Three μL of substrate mix (at r.t.) in assay buffer (50 mM imidazole pH 7.2, 50 mM KCl, 7 mM MgCl2, 0.01% tween 20, 0.05% BSA) was dispensed into Kalypsys white solid bottom 1,536 well microtiter plates using a bottle-valve solenoid-based dispenser (Kalypsys). The final concentrations of substrates in the assay were 0.1 mM ADP and 0.5 mM PEP. […] Microtiter plates were incubated at r.t. for 1 hour and 2 uL of luciferase detection mix (Kinase-Glo, Promega at 4° C. protected from light) was added and luminescence was read with a ViewLux (Perkin Elmer) using a 5 second exposure/plate. Data was normalized for AC50 values to control columns containing uninhibited enzyme (n), and AC100 inhibition (i) according the following equation: Activation (%)=[(c−n)/(n−i)]*100 where c=compound, n=DMSO neutral, i=no enzyme control. […] Monitoring of activation was accomplished using enzyme at 3× the final concentration.
Background: Kinase-Glo measures the ATP left after a reaction by luminescence.

Where [1] appears, read: KinaseGlo, % activation at 57 μM of compound.
[2] abbreviates: luciferase-coupled assay, read-out: AC50.
Where [3] appears, read: luminescent pyruvate kinase-luciferase coupled assay (KinaseGlo), tables, read-out: hPK, M2 AC50.

23 molecules from US8937067B2, “Activators of human pyruvate kinase” (The United States of America, as represented by the …, priority 2008, dated 2015) can be followed below.

SMILES strings stand for the structures. Where two headings read alike, the source gives them in different places.

As a reminder, the AC50 is the midpoint of the concentration-response curve, whichever way the signal moves.

Sequence of hPK-M2 (P14618 whole entry): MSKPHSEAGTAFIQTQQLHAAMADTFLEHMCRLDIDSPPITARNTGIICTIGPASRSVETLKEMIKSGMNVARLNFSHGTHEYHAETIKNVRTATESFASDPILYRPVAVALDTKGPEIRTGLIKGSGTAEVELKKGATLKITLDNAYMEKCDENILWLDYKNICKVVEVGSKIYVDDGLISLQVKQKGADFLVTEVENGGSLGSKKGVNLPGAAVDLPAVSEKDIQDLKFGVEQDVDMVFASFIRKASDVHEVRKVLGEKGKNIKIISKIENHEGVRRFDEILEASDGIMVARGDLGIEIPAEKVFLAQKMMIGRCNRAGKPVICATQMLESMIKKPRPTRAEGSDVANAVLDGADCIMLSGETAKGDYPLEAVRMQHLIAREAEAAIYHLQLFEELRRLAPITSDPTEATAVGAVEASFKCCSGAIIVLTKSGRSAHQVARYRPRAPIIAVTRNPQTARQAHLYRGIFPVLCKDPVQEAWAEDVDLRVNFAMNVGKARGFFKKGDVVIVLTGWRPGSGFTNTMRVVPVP

`O=S(=O)(c1ccc2c(c1)OCCO2)N1CCN(S(=O)(=O)c2ccc3c(c2)OCCO3)CC1` [Compound 2, 1,4-bis(2,3-dihydrobenzo[b][1,4]dioxin-6-ylsulfonyl)piperazine]: the activation at 57 µM under setting [1] amounted to 89.7 ± 2.2%. Also, under setting [2], the half-maximal activity concentration (AC50) was found to be 270 nM.
In the case of `COc1ccc(S(=O)(=O)N2CCN(S(=O)(=O)c3ccc(OC)cc3)CC2)cc1` [Compound 3, 1,4-bis(4-methoxyphenylsulfonyl)piperazine], under setting [1], the activation at 57 µM came out at 87.6 ± 16.2%. In addition, the half-maximal activity concentration (AC50) under setting [3] was determined as 171 nM.
Turning to `N#Cc1ccc(S(=O)(=O)N2CCN(S(=O)(=O)c3ccc4c(c3)OCCO4)CC2)cc1` [Compound 4, 4-(4-(2,3-dihydrobenzo[b][1,4]dioxin-6-ylsulfonyl)piperazin-1-ylsulfonyl)benzonitrile], under setting [1], the activation at 57 µM is 44.1 ± 6.1%. Under setting [3], the concentration at half-maximal activity (AC50) was determined as 29 nM.
In the same order, the values of `O=S(=O)(c1ccc(Cl)cc1)N1CCN(S(=O)(=O)c2ccc3c(c2)OCCO3)CC1` [Compound 5, 1-(4-chlorophenylsulfonyl)-4-(2,3-dihydrobenzo[b][1,4]dioxin-6-ylsulfonyl)piperazine] are 99.6 ± 2.5% and 154 nM.
The like results for `O=S(=O)(c1ccc(F)cc1)N1CCN(S(=O)(=O)c2ccc3c(c2)OCCO3)CC1` [Compound 6, 1-(2,3-dihydrobenzo[b][1,4]dioxin-6-ylsulfonyl)-4-(4-fluorophenylsulfonyl)piperazine] were, in that order, 99.7 ± 4.2% and 94 nM.
In the case of `O=S(=O)(c1ccc2c(c1)OCCO2)N1CCN(S(=O)(=O)c2ccccc2F)CC1` [Compound 8, 1-(2,3-dihydrobenzo[b][1,4]dioxin-6-ylsulfonyl)-4-(2-fluorophenylsulfonyl)piperazine], under setting [1], the activation at 57 µM came to 114 ± 4%. In addition, the AC50 under setting [3] came to 89 nM.
Turning to `O=S(=O)(c1ccc2c(c1)OCCO2)N1CCN(S(=O)(=O)c2c(F)cccc2F)CC1` [Compound 9, 1-(2,6-difluorophenylsulfonyl)-4-(2,3-dihydrobenzo[b][1,4]dioxin-6-ylsulfonyl)piperazine], the activation at 57 µM under setting [1] worked out at 94.4 ± 2.8%. The concentration at half-maximal activity (AC50) under setting [2] came to 65 ± 25 nM.
As to `O=S(=O)(c1ccc2c(c1)OCCO2)N1CCN(S(=O)(=O)c2cc(F)c(F)cc2F)CC1` [Compound 10, 1-(2,3-dihydrobenzo[b][1,4]dioxin-6-ylsulfonyl)-4-(2,4,5-trifluorophenylsulfonyl)piperazine], under setting [1], the activation at 57 µM amounted to 105 ± 7.6%. In addition, under setting [3], the half-maximal activity concentration (AC50) worked out at 90 nM.
As to `COc1cc(F)c(S(=O)(=O)N2CCN(S(=O)(=O)c3ccc4c(c3)OCCO4)CC2)c(F)c1` [Compound 11, 1-(2,6-difluoro-4-methoxyphenylsulfonyl)-4-(2,3-dihydrobenzo[b][1,4]dioxin-6-ylsulfonyl)piperazine], the activation at 57 µM under setting [1] was 91.8 ± 9.6%. Moreover, the AC50 under setting [3] amounted to 28 nM.
As for `CCCc1cc(F)c(S(=O)(=O)N2CCN(S(=O)(=O)c3ccc4c(c3)OCCO4)CC2)cc1F` [Compound 12, 1-(2,5-difluoro-4-propylphenylsulfonyl)-4-(2,3-dihydrobenzo[b][1,4]dioxin-6-ylsulfonyl)piperazine], the “PKM2 activation, result in words” value is recorded as “diminished activity”. In addition, the activation at 57 µM under setting [1] was found to be 69.2 ± 10.4%. Besides, the half-maximal activity concentration (AC50) under setting [3] amounted to 757 nM.
Consider `O=S(=O)(c1ccc2c(c1)OCCO2)N1CCN(S(=O)(=O)c2c(F)ccc(O)c2F)CC1` [Compound 13, 3-(4-(2,3-dihydrobenzo[b][1,4]dioxin-6-ylsulfonyl)piperazin-1-ylsulfonyl)-2,4-difluorophenol], for which the activation at 57 µM under setting [1] was 95.3 ± 8.4%. In addition, the AC50 under setting [2] came to 52 ± 14 nM.
Regarding `O=S(=O)(c1ccc2c(c1)OCCO2)N1CCN(S(=O)(=O)c2ccc(F)cc2F)CC1` [Compound 14, 1-(2,4-difluorophenylsulfonyl)-4-(2,3-dihydrobenzo[b][1,4]dioxin-6-ylsulfonyl)piperazine], under setting [1], the activation at 57 µM is 113 ± 6.3%. For the same molecule, the AC50 under setting [3] is 124 nM.
Turning to `O=S(=O)(c1ccccc1)N1CCN(S(=O)(=O)c2ccc3c(c2)OCCO3)CC1` [Compound 15, 1-(2,3-dihydrobenzo[b][1,4]dioxin-6-ylsulfonyl)-4-(phenylsulfonyl)piperazine], the activation at 57 µM under setting [1] was 108 ± 4.3%. For the same molecule, the AC50 under setting [3] was 202 nM.
As for `O=S(=O)(c1cccc(C(F)(F)F)c1)N1CCN(S(=O)(=O)c2ccc3c(c2)OCCO3)CC1` [Compound 16, 1-(2,3-dihydrobenzo[b][1,4]dioxin-6-ylsulfonyl)-4-(3-(trifluoromethyl)phenylsulfonyl)piperazine], under setting [1], the activation at 57 µM amounted to 39.3 ± 6.2%. Further, the AC50 under setting [3] turned out to be 209 nM.
The like results for `COc1cccc(S(=O)(=O)N2CCN(S(=O)(=O)c3ccc4c(c3)OCCO4)CC2)c1` [Compound 17, 1-(2,3-dihydrobenzo[b][1,4]dioxin-6-ylsulfonyl)-4-(3-methoxyphenylsulfonyl)piperazine] were, in that order, 90 ± 4.5% and 113 nM.
With `O=S(=O)(c1ccc2c(c1)OCCO2)N1CCN(S(=O)(=O)c2ccccn2)CC1` [Compound 18, 1-(2,3-dihydrobenzo[b][1,4]dioxin-6-ylsulfonyl)-4-(pyridin-2-ylsulfonyl)piperazine], under setting [1], the activation at 57 µM is 103 ± 6.6%. Besides, the AC50 under setting [3] was determined as 542 nM.
For `O=S(=O)(c1ccc2c(c1)OCCO2)N1CCN(S(=O)(=O)c2cccc[n+]2[O-])CC1` [Compound 19, 2-(4-(2,3-dihydrobenzo[b][1,4]dioxin-6-ylsulfonyl)piperazin-1-ylsulfonyl)pyridine 1-oxide], the activation at 57 µM under setting [1] amounted to 81.5 ± 3.2%. In addition, the half-maximal activity concentration (AC50) under setting [2] is 254 ± 47 nM. The Emax (luciferase-coupled assay, relative to activation by FBP, read-out: maximum response) turned out to be 104%.
As for `O=S(=O)(c1c(F)cccc1F)C1CCN(S(=O)(=O)c2ccc3c(c2)OCCO3)CC1` [Compound 20, 4-(2,6-difluorophenylsulfonyl)-1-(2,3-dihydrobenzo[b][1,4]dioxin-6-ylsulfonyl)piperidine], under setting [1], the activation at 57 µM stood at 104 ± 5.1%. Besides, the AC50 under setting [3] is 254 nM.
In the same order, the values of `O=S(=O)(c1ccc2c(c1)OCO2)N1CCN(S(=O)(=O)c2c(F)cccc2F)CC1` [Compound 24, 1-(benzo[d][1,3]dioxol-5-ylsulfonyl)-4-(2,6-difluorophenylsulfonyl)piperazine] are 61 ± 1.2% and 191 nM.
In the case of `CN1CCOc2ccc(S(=O)(=O)N3CCN(S(=O)(=O)c4c(F)cccc4F)CC3)cc21` [Compound 25, 6-(4-(2,6-difluorophenylsulfonyl)piperazin-1-ylsulfonyl)-4-methyl-3,4-dihydro-2H-benzo[b][1,4]oxazine], under setting [1], the “hPK, M2 Max. Res.” value came out at 93.5 ± 5.9%. Besides, the AC50 under setting [3] was 2710 nM.
In the case of `CC1(C)CCc2cc(S(=O)(=O)N3CCN(S(=O)(=O)c4c(F)cccc4F)CC3)ccc2O1` [Compound 27, 1-(2,6-difluorophenylsulfonyl)-4-(2,2-dimethylchroman-6-ylsulfonyl)piperazine], the activation at 57 µM under setting [1] amounted to 119 ± 5.4%. For the same molecule, the AC50 under setting [3] is 93 nM.
The like results for `Cn1ccc2cc(S(=O)(=O)N3CCN(S(=O)(=O)c4c(F)cccc4F)CC3)ccc21` [Compound 28, 5-(4-(2,6-difluorophenylsulfonyl)piperazin-1-ylsulfonyl)-1-methyl-1H-indole] were, in that order, 91.1 ± 4.7% and 387 nM.
The like results for `O=S(=O)(c1ccc2c(c1)OCCO2)C1CCN(S(=O)(=O)c2c(F)cccc2F)CC1` [Compound 30, 1-(2,6-difluorophenylsulfonyl)-4-(2,3-dihydrobenzo[b][1,4]dioxin-6-ylsulfonyl)piperidine] were, in that order, 110 ± 5.4% and 863 nM.
